Here are results for one molecule from EPA's ToxValDB 9.5 (doi:10.2903/j.efsa.2009.269r).

Data set [1] has as its system Bibionidae. The following applies: chronic/long-term; duration: 28 days.
The test system of data set [2] is Colinus virginianus.
Data set [3] relates to Anas platyrhynchos. Conditions: acute; oral; unspecified; mortality.
For data set [4], the system named is Canidae. Conditions: chronic; duration: 1 years; oral; Dog Other; organ weight.
Data set [5] deals with Tagia sp. The following applies: mortality.
Data set [6] deals with Rattus norvegicus. Conditions: for NOAEL: histopathology: nonneoplastic.
For data set [7], the system named is Oncorhynchus mykiss.
Data set [8] has as its system Daphnia magna. Conditions: chronic/long-term; duration: 21 days; reproduction.
Data set [9] relates to Folsomia candida. The following applies: chronic/long-term; reproduction.
In data set [10] the test system is Apis mellifera. Conditions: acute; duration: 48 hours; dermal; mortality.
Data set [11] relates to Aphidius rhopalosiphi. The data set is described as follows: LR50; higher = less toxic. The following applies: not reported; mortality.

What is called NOAEL is the highest dose or exposure tested at which no adverse effect was seen. For the molecule `Clc1ccccc1-c1nnc(-c2ccccc2Cl)nn1` [Clofentezine], the NOEC came to 0.5 mg/L in data set [1]; 7.62 mg/kg-day in [2] (reproduction developmental); 5310 mg/kg in [5] (chronic/long-term); 40 mg/kg-day in [6] (chronic); 0.007 mg/L in data set [7] (chronic/long-term, duration: 97 days); 0.025 mg/L in [8]. In data set [9], this molecule yielded an NOEC of 160 mg/kg. Also, the LC50 in data set [2] (acute, oral, diet, mortality) was more than 4000 mg/kg-day; in data set [5] (acute), 430 mg/kg; in data set [7] (acute, duration: 96 hours, mortality) it was more than 0.0146 µg/mL. For the same molecule, the LD50 in [3] is more than 3000 mg/kg-day; in data set [6] (acute, oral, mortality), more than 5200 mg/kg-day; in data set [10], more than 84.5 µg/piece. For the same molecule, the no-observed-adverse-effect level (NOAEL) in data set [4] is 1.7 mg/kg-day; in [6] (chronic, duration: 2 years) it was 2 mg/kg-day; in [6] (subchronic, duration: 90 days, oral) it was 2.65 mg/kg-day. In [11], this molecule displayed an LR50 of 36.2 g/ha.
